Drawing on DBAASP, this text covers MIC for eight molecules.

Test systems include Staphylococcus aureus MR; Escherichia coli UB1005; Bacillus megaterium Bm11; Escherichia coli ML-35; Aureobasidium pullulans.
Holding throughout (assay): ≥ marks a high value that may be exact or a test limit, other limits are often not marked, values filed in µg/mL are converted to µM
Experiment [1] has as its system Batrachochytrium dendrobatidis.
Experiment [2] has as its system Escherichia coli DSM 1116.
In experiment [3] the test system is Franconibacter helveticus DSM 18390.
Experiment [4] relates to Staphylococcus xylosus DSM 20287.
Experiment [5] has as its system Bacillus subtilis DSM 347.
In experiment [6] the test system is Pseudomonas aeruginosa ATCC 27853.
Experiment [7] has as its system Escherichia coli KpC+002101123.
For experiment [8], the system named is Klebsiella pneumoniae ATCC 13883.
The subject of experiment [9] is Escherichia coli KpC+001812446.
The subject of experiment [10] is Staphylococcus aureus ATCC 25923.
Experiment [11] concerns Escherichia coli ATCC 25922.
Experiment [12] relates to Klebsiella pneumoniae KpC+001825971.
Experiment [13] relates to Staphylococcus aureus Newman.
Experiment [14] has as its system Staphylococcus epidermidis ATCC 35984.
Experiment [15] has as its system Klebsiella pneumoniae KAY 2026.
Experiment [16] concerns Pseudomonas aeruginosa ATCC 15692.
The test system of experiment [17] is Escherichia coli DH5alpha.
In experiment [18] the test system is Streptococcus mutans JM11.
Experiment [19] deals with Listeria monocytogenes CMCC 54004.
Experiment [20] has as its system Salmonella enterica subsp. enterica serovar Pullorum C79-13.
Experiment [21] concerns Bacillus cereus CMCC 6303.
Experiment [22] concerns Cronobacter sakazakii ATCC 29544.
Experiment [23] concerns Salmonella enterica subsp. enterica CMCC 47020.
In experiment [24] the test system is Salmonella enterica subsp. enterica serovar Typhimurium C77-31.
Experiment [25] concerns Salmonella enterica subsp. enterica serovar Typhimurium ATCC 14028.
The test system of experiment [26] is Salmonella enterica subsp. enterica serovar Typhi CMCC 50071.
In experiment [27] the test system is Staphylococcus aureus CMCC 26074.
Experiment [28] has as its system Staphylococcus aureus 710A.
Experiment [29] deals with Acinetobacter baumannii KCTC 2508.
The test system of experiment [30] is Bacillus subtilis KCTC 2217.
In experiment [31] the test system is Candida albicans ATCC 10231.
In experiment [32] the test system is Corynebacterium glutamicum ATCC 13032.
Experiment [33] concerns Staphylococcus aureus ATCC 9144.

One may read the MIC as the lowest concentration that inhibits growth of the organism.

Each structure is given as a SMILES string. Values after ≈ are worked out from the molar mass of the structure shown. Values joined by “and” are separate entries in the source; they are usually repeats but may differ in a detail not shown here. Equal values may be shown once.

With `CC[C@H](C)[C@H](NC(=O)[C@@H](NC(=O)[C@@H]1CCCN1C(=O)[C@H](CC(C)C)NC(=O)[C@@H](N)Cc1ccccc1)[C@@H](C)CC)C(=O)N[C@@H](C)C(=O)N[C@@H](CO)C(=O)N[C@@H](CC(C)C)C(=O)N[C@@H](CC(C)C)C(=O)NCC(=O)N[C@@H](CCCCN)C(=O)N[C@@H](CC(C)C)C(=O)N[C@@H](CC(C)C)C(N)=O` [FLPIIASLLGKLL], the minimal inhibitory concentration (MIC) in experiment [1] worked out at 28.6 µM (≈ 40 µg/mL).
For `CC[C@H](C)[C@H](N)C(=O)N[C@@H](C)C(=O)NCC(=O)N[C@@H](CCCCN)C(=O)N[C@H](C(=O)N[C@@H](C)C(=O)N[C@@H](CCCCN)C(=O)N[C@H](C(=O)N[C@@H](C)C(=O)NCC(=O)N[C@@H](CCCCN)C(=O)N[C@H](C(=O)N[C@@H](C)C(=O)N[C@@H](CCCCN)C(=O)N[C@H](C(=O)N[C@@H](C)C(=O)NCC(=O)N[C@@H](CCCCN)C(=O)N[C@H](C(=O)N[C@@H](C)C(=O)N[C@@H](CCCCN)C(=O)N[C@H](C(=O)N[C@@H](C)C(=O)NCC(=O)N[C@@H](CCCCN)C(=O)N[C@H](C(=O)N[C@@H](C)C(N)=O)[C@@H](C)CC)[C@@H](C)CC)[C@@H](C)CC)[C@@H](C)CC)[C@@H](C)CC)[C@@H](C)CC)[C@@H](C)CC` [IAGKIAKIAGKIAKIAGKIAKIAGKIA], the MIC in experiment [2] was 2.16 µM (≈ 5.65 µg/mL); in [3], 1.08 µM (≈ 2.83 µg/mL); in experiment [4] it was 0.764 µM (≈ 2 µg/mL); in experiment [5], 1.08 µM (≈ 2.83 µg/mL).
In the case of `CC[C@H](C)[C@H](NC(=O)[C@@H](NC(=O)[C@H](CO)NC(=O)[C@H](C)NC(=O)[C@@H](NC(=O)[C@H](CCCCN)NC(=O)[C@H](CCCCN)NC(=O)[C@@H](NC(=O)[C@@H](NC(=O)[C@H](CC(=O)O)NC(=O)[C@H](Cc1ccccc1)NC(=O)[C@H](CC(C)C)NC(=O)CNC(=O)[C@H](Cc1cnc[nH]1)NC(=O)CNC(=O)CN)C(C)C)[C@@H](C)CC)C(C)C)C(C)C)C(=O)NCC(=O)NCC(=O)N[C@@H](CC(C)C)C(N)=O` [GGHGLFDVIKKVASVIGGL], the MIC in experiment [6] was over 34 µM; in experiment [7] it was 9 µM (≈ 16.8 µg/mL); in experiment [8] it was at least 34 µM; in experiment [9], at least 34 µM; in [10], 9 µM (≈ 16.8 µg/mL); in [11], 34 µM (≈ 63.5 µg/mL). For the same molecule, the MIC in experiment [12] is at least 34 µM; against Staphylococcus aureus MR, 17 µM (≈ 31.7 µg/mL).
For `CC[C@H](C)[C@H](NC(=O)[C@@H](N)Cc1ccccc1)C(=O)N[C@@H](CCCN=C(N)N)C(=O)N[C@@H](CCCCN)C(=O)N[C@@H](Cc1ccccc1)C(=O)N[C@@H](CC(C)C)C(=O)N[C@@H](CCCCN)C(=O)N[C@@H](CCCCN)C(=O)N[C@@H](Cc1c[nH]c2ccccc12)C(=O)N[C@@H](CC(C)C)C(=O)N[C@@H](CC(C)C)C(N)=O` [FIRKFLKKWLL], the MIC is 5.62 µM (≈ 8.39 µg/mL) in experiment [13]; 5.11 µM (≈ 7.62 µg/mL) in experiment [14]; 2.98 µM (≈ 4.44 µg/mL) in [15]; 14.4 µM (≈ 21.5 µg/mL) in experiment [16]; 5.47 µM (≈ 8.16 µg/mL) in experiment [17]; 2.86 µM (≈ 4.26 µg/mL) in experiment [18].
With `CC[C@H](C)[C@H](NC(=O)[C@H](CCCN=C(N)N)NC(=O)[C@H](CCCCN)NC(=O)[C@H](Cc1c[nH]c2ccccc12)NC(=O)[C@@H](N)CCCN=C(N)N)C(=O)N[C@H](C(=O)N[C@H](C(=O)N[C@H](C(=O)N[C@@H](CCCN=C(N)N)C(=O)N[C@@H](CCCCN)C(=O)N[C@@H](CCCN=C(N)N)C(=O)N[C@@H](CCCN=C(N)N)C(N)=O)[C@@H](C)CC)C(C)C)C(C)C` [RWKRIVVIRKRR], the MIC in the experiment on Escherichia coli UB1005 is at least 256 µM; in experiment [19] it was at least 128 µM; in experiment [20], at least 256 µM; in experiment [21] it was at least 128 µM; in [22] it was at least 256 µM; in [23], at least 256 µM. Moreover, the MIC in experiment [24] was at least 256 µM; in experiment [25], 128 µM (≈ 213 µg/mL); in [26], at least 128 µM; in [10], over 256 µM; in [27], at least 256 µM.
Turning to `CC[C@H](C)[C@H](NC(=O)[C@H](CCCCN)NC(=O)[C@H](CCCCN)NC(=O)[C@H](CC(C)C)NC(=O)[C@H](CC(C)C)NC(=O)CN)C(=O)NCC(=O)N[C@@H](CCCCN)C(=O)N[C@@H](CCCCN)C(=O)N[C@@H](C)C(=O)N[C@@H](CCCCN)C(=O)N[C@@H](CCCCN)C(=O)N[C@@H](C)C(=O)NCC(=O)N[C@@H](CCCCN)C(=O)N[C@@H](CCCCN)C(=O)N[C@@H](CC(C)C)C(=O)NCC(=O)N[C@@H](Cc1ccc(O)cc1)C(N)=O` [GLLKKIGKKAKKAGKKLGY], the MIC against Bacillus megaterium Bm11 was at least 32 µM; in [6], 16 µM (≈ 32.5 µg/mL); against Escherichia coli ML-35 it was 4 µM (≈ 8.11 µg/mL); in experiment [28], at least 32 µM; in [25], over 32 µM.
On to `CC(C)C[C@H](NC(=O)[C@H](CCCCN)NC(=O)[C@H](CCCCN)NC(=O)[C@H](CC(C)C)NC(=O)[C@H](CC(C)C)NC(=O)[C@H](CCCCN)NC(=O)[C@H](CCCCN)NC(=O)[C@H](CC(C)C)NC(=O)[C@H](CC(C)C)NC(=O)[C@@H]1CCCN1C(=O)[C@H](CCCCN)NC(=O)[C@@H](N)CCCCN)C(N)=O` [KKPLLKKLLKKL], for which the MIC was 25 µM (≈ 36.2 µg/mL) in experiment [29]; 1.56 µM and > 0.78 µM in experiment [10]; 1.56 µM (≈ 2.26 µg/mL) in [30].
Consider `CC(C)[C@H](NC(=O)[C@H](CCCCN)NC(=O)[C@H](C)NC(=O)[C@@H](NC(=O)[C@@H](NC(=O)[C@H](CCCN=C(N)N)NC(=O)[C@H](CCCN=C(N)N)NC(=O)[C@H](Cc1c[nH]c2ccccc12)NC(=O)[C@H](Cc1c[nH]c2ccccc12)NC(=O)CN)[C@@H](C)O)C(C)C)C(=O)N[C@@H](CCCN=C(N)N)C(=O)N[C@@H](CCCCN)C(N)=O` [GWWRRTVAKVRK], for which the MIC was 1.6 µM (≈ 2.47 µg/mL) in [6]; 6.3 µM (≈ 9.71 µg/mL) in experiment [31]; 12.5 µM (≈ 19.3 µg/mL) against Aureobasidium pullulans; 0.4 µM (≈ 0.617 µg/mL) in [32]; 3.1 µM (≈ 4.78 µg/mL) in experiment [11]; 12.5 µM (≈ 19.3 µg/mL) in experiment [33].
